From article PMC7879681, “Baicalein inhibits heparin-induced Tau aggregation by initializing non-toxic Tau oligomer formation” (Cell Communication and Signaling : CCS, 2021)

Molecular target: T1, full-length Tau (hTau40WT) (Homo sapiens, UniProt P10636)
T1 construct: gene MAPT; recombinant wild type human full-length Tau (hTau40WT)
Experiment: ThS fluorescence inhibition of heparin-induced aggregation of purified Tau; supported by ANS, SDS-PAGE, CD, TEM; dissolves preformed fibrils (DC50 […])
Assay type: biochemical

T1 sequence (P10636 2-441 isoform P10636-8): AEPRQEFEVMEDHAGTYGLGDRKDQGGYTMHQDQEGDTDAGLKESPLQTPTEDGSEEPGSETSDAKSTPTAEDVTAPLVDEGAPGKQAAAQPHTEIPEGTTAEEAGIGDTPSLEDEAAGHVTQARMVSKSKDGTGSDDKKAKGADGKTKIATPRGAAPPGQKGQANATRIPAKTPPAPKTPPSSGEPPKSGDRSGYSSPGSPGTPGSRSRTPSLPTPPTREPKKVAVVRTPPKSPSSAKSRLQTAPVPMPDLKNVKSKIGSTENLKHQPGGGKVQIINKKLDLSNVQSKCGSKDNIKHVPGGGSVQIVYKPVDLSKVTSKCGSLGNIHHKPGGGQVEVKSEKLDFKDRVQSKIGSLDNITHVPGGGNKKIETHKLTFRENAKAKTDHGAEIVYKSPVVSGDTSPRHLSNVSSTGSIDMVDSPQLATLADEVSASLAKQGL

O=c1cc(-c2ccccc2)oc2cc(O)c(O)c(O)c12 [Baicalein]
IC50: 27.7 µM
